Entries after “also recorded” stand apart in the source; their conditions may differ. Where a name gives a salt, the structure may show the parent alone. Read-outs that look alike come from different tables or passages of the source.
Key:
[1] = cytotoxicity in the HCV RNA replicon assay; conditions: for Cytotoxicity (% cell control): primary, single-dilution test
HCV RNA replicon = HCV RNA replicon assay; assay type: cell-based, hepatitis C virus (HCV); conditions: for Activity (% inhibition virus control) / outcome of primary test: primary, single-dilution test; for EC50: Hepatitis C virus
Procedure: A number of […] 7-deazaneplanocin compounds were tested in vitro to determine activity against hepatitis C virus (HCV).

[2] = toxicity (CC50) in the anti-HBV test; assay type: cell-based
Hepatitis B Virus [3] = assay: in vitro anti-HBV activity, VIR (extracellular virion HBV DNA); assay type: cell-based
Procedure: (§1) In the first biological experiment, a number of 7-deazaneplanocin compounds were tested in vitro to determine activity against hepatitis B virus (HBV).

[4] = stability of the isolated compound on standing; assay type: physicochemical; conditions: room temperature, over several days
Hepatitis B Virus [5] = assay: in vitro anti-HBV activity, RI (intracellular HBV DNA replication intermediates); assay type: cell-based
Procedure: as §1

SARS = assay: organism not typed; assay type: cell-based; conditions: Vero 76
Cowpox = assay: microbe, parasite or virus in culture; assay type: cell-based, cowpox virus
Flu A = assay: organism not typed; assay type: cell-based
RSV A = assay: antiviral assay, RSV A in MA-104; assay type: cell-based; conditions: human respiratory syncytial virus, MA104, RSV A
Flu A (H5N1) = assay: microbe, parasite or virus in culture; assay type: cell-based
HSV-2 = assay: CPE assay, HSV-2 in HFF cells; assay type: cell-based, herpes simplex virus type 2; conditions: Human alphaherpesvirus 2
Flu A (H3N2) = assay: microbe, parasite or virus in culture; assay type: cell-based
PIV = assay: antiviral assay, PIV in MA-104; assay type: cell-based, parainfluenza virus
HSV-1 = assay: CPE assay, HSV-1 in HFF cells; assay type: cell-based, herpes simplex virus type 1; conditions: Human alphaherpesvirus 1
HCMV = assay: CPE assay, HCMV in HFF cells; assay type: cell-based, human cytomegalovirus; conditions: Human betaherpesvirus 5
Vaccinia = assay: microbe, parasite or virus in culture; assay type: cell-based, vaccinia virus
Rhinovirus = assay: antiviral assay, Rhinovirus in HeLa Ohio-1; assay type: cell-based; conditions: Enterovirus, HeLa Ohio1, RV, HO-1
Adeno = assay: antiviral assay, Adeno in A-549; assay type: cell-based; conditions: unidentified adenovirus, A549, Adeno
Yellow Fever = assay: organism not typed; assay type: cell-based; conditions: Vero
VZV = assay: CPE assay, VZV in HFF cells; assay type: cell-based, varicella zoster virus; conditions: Human alphaherpesvirus 3
Measles = assay: antiviral assay, Measles in CV-1; assay type: cell-based; conditions: Measles morbillivirus
Flu A (H1N1) = assay: microbe, parasite or virus in culture; assay type: cell-based; conditions: Influenza A virus, H1N1, MDCK
HBV strain WT = assay: HBV DR Assay, strain WT; assay type: cell-based
[6] = system: vacinnia, cowpox and SARS viruses; assay type: cell-based
SARS virus = assay type: cell-based; conditions: against SARS virus
cowpox virus = assay type: cell-based; conditions: against cowpox virus
vacinnia virus = assay type: cell-based; conditions: against vacinnia virus
[7] = Hepatitis B virus, VIR: extracellular virion HBV DNA
[8] = HT20, HT @ 20 μM, read-out: EC50
[9] = VIR: extracellular virion HBV DNA

## Nc1ncnc2c1c([N+](=O)[O-])cn2[C@@H]1C=C(CO)C(O)C1O (stereo partly shown)
[1]
  Cytotoxicity (% cell control): 101.5%
HCV RNA replicon
  Activity (% inhibition virus control): 31.5%

## Nc1ncnc2c1c([N+](=O)[O-])cn2[C@@H]1C=C(CO)[C@H](O)C1O (stereo partly shown) [Compound 22, 7—Deaza-7-Nitro-Neplanocin A]
other
  melting point: 245 to 246 °C
[2]
  CC50: > 300 µM
Hepatitis B Virus [3]; [7]
  EC50: > 10 µM
  EC90: > 10 µM

## 7-Deaza-7-Amino-Neplanocin A [Compound 23]
[4]
  stability: not stable; also recorded: slowly decomposed in room temperature

## Nc1ncnc2c1c(F)cn2[C@@H]1C=C(CO)C(O)C1O (stereo partly shown)
[1]
  Cytotoxicity (% cell control): 112.7%
HCV RNA replicon
  Activity (% inhibition virus control): 9.5%
  outcome of primary test: Inactive in primary, single-dilution test

## C#Cc1cn([C@@H]2C=C(CO)C(O)C2O)c2ncnc(N)c12 (stereo partly shown) [drawing 37]
[1]; HT20, HT @ 20 μM
  IC50: > 20 µM
[1]; HT @ 100 μM
  IC50: 48.9 µM
[1]
  Cytotoxicity (% cell control): 86.6%
HCV RNA replicon; [8]
  EC50: 12.3 µM
HCV RNA replicon; HT @ 100 μM, read-out: EC50
  EC50: 20.1 µM
HCV RNA replicon
  Activity (% inhibition virus control): 73.3%

## N#Cc1cn([C@@H]2C=C(CO)[C@@H](O)[C@H]2O)c2ncnc(N)c12 [Compound 17, 7-Deaza-7-Cyano-Neplanocin A]
[2]
  CC50: > 300 µM
Hepatitis B Virus [3]; [9]
  EC50: > 10 µM
  EC90: > 10 µM

## NC(=O)c1cn([C@@H]2C=C(CO)C(O)C2O)c2ncnc(N)c12 (stereo partly shown)
[1]; HT not given
  IC50: 11.8 µM
[1]
  Cytotoxicity (% cell control): 44.2%
HCV RNA replicon; HT not given, read-out: EC50
  EC50: 1.85 µM
HCV RNA replicon
  Activity (% inhibition virus control): 93.5%

## C=Cc1cn([C@@H]2C=C(CO)[C@H](O)C2O)c2ncnc(N)c12 (stereo partly shown) [Compound 25, 7-Deaza-7-Vinyl-Substituted Neplanocin A]
other
  melting point: 168 to 170 °C
[2]
  CC50: > 300 µM
Hepatitis B Virus [5]; Hepatitis B virus
  EC50: 10 µM
  EC90: 26 µM
Hepatitis B Virus [3]; [7]
  EC50: 3.3 µM
  EC90: 9.1 µM

## Nc1ncnc2c1c(I)cn2[C@@H]1C=C(CO)C(O)C1O (stereo partly shown)
[1]; HT @ 5 μM
  IC50: > 5 µM
[1]; HT @ 100 μM
  IC50: 15 µM
[1]
  Cytotoxicity (% cell control): 35.2%
HCV RNA replicon; HT @ 5 μM, read-out: EC50
  EC50: 3.07 µM
HCV RNA replicon; HT @ 100 μM, read-out: EC50
  EC50: 2.14 µM
HCV RNA replicon
  Activity (% inhibition virus control): 89.7%

## Nc1nccc2c1ncn2[C@@H]1C=C(CO)[C@@H](O)[C@H]1O [Compound 3-DNPA, (−)-1-[(1R,4R,5S)-3-(Hydroxymethyl)-4,5-dihydroxy-2-cyclopenten-1-yl]-4-aminoimidazo[4,5-c]pyridine Hydrochloride]
SARS; SARS, Visual
  EC50: > 100 µM
SARS
  EC50: > 100 µM
Cowpox; Cowpox virus, HFF
  EC50: 182 µM
Flu A
  EC50: > 100 µM
RSV A; NR
  EC50: 4 µM
RSV A; Visual
  EC50: 100 µM
Flu A (H5N1); Flu A (H5N1), Visual, MDCK
  EC50: > 100 µM
Flu A (H5N1); Influenza A virus, H5N1, MDCK
  EC50: > 100 µM
HSV-2
  EC50: 43.5 µM
Flu A (H3N2); Flu A (H3N2), Visual, MDCK
  EC50: > 100 µM
Flu A (H3N2); Influenza A virus, H3N2, MDCK
  EC50: > 100 µM
PIV; MA104, NR
  EC50: > 100 µM
PIV; Visual
  EC50: > 100 µM
HSV-1
  EC50: > 300 µM
HCMV
  EC50: 0.36 µM
Vaccinia; Orthopoxvirus vaccinia, HFF
  EC50: 2.9 µM
Rhinovirus; NR
  EC50: 4 µM
Rhinovirus; Visual
  EC50: 32 µM
HCV RNA replicon; Huh7 ET, HCV, HRR (HCV RNA replicon), Huh7 ET, read-out: EC50
  EC50: 1.44 µM
Adeno; NR
  EC50: 17 µM
Adeno; Visual
  EC50: 24 µM
Yellow Fever
  EC50: > 100 µM
Yellow Fever; YF, Visual
  EC50: > 100 µM
VZV
  EC50: > 300 µM
Measles; NR
  EC50: 0.4 µM
Measles; Visual
  EC50: 0.9 µM
Flu A (H1N1); NR
  EC50: > 25 µM
Flu A (H1N1); Visual
  EC50: > 100 µM
Hepatitis B Virus [3]; Hepatitis B virus, HBV, VIR, Huh7 ET (Table 3)
  EC50: 0.59 µM

## Nc1ncnc2c1ccn2[C@@H]1C=C(CO)[C@@H](O)[C@H]1O [7-deaza neplanocin A]
Cowpox; Cowpox, HFF cells, CPE reduction assay
  EC90: 4.6 µM
Cowpox; Cowpox, HFF cells, CPE reduction assay, read-out: EC50
  EC50: 1.2 µM
HFF cells
  CC50: > 300 µM
  cytotoxicity (none up to): > 300 µM
Vaccinia; Vaccinia, HFF cells, CPE reduction assay
  EC90: 21.5 µM
Vaccinia; Vaccinia, HFF cells, CPE reduction assay, read-out: EC50
  EC50: 3.4 µM

## Nc1ccn([C@@H]2CS[C@H](CO)O2)c(=O)n1 [Compound 3TC]
HBV strain WT
  EC50: 0.2 µM
  EC90: 0.6 µM

## Nc1nc2c(ccn2[C@@H]2C=C(CO)C(O)C2O)c(=O)[nH]1 (stereo partly shown)
[1]
  Cytotoxicity (% cell control): 99.8%
HCV RNA replicon
  Activity (% inhibition virus control): 10.1%
  outcome of primary test: Inactive in primary, single-dilution test

## Nc1ncnc2c1c(Br)cn2[C@@H]1C=C(CO)C(O)C1O (stereo partly shown)
[1]; HT20, HT @ 20 μM
  IC50: > 20 µM
[1]; HT @ 100 μM
  IC50: 41.7 µM
[1]
  Cytotoxicity (% cell control): 76.3%
HCV RNA replicon; [8]
  EC50: 10.5 µM
HCV RNA replicon; HT @ 100 μM, read-out: EC50
  EC50: 16.7 µM
HCV RNA replicon
  Activity (% inhibition virus control): 80.9%

## Nc1ncnc2c1c(Br)cn2[C@@H]1C=C(CO)[C@@H](O)[C@H]1O [Compound 12, 7-Deaza-7-Bromo Neplanocin A]
[2]
  CC50: > 300 µM
Hepatitis B Virus [3]; [9]
  EC50: > 10 µM
  EC90: > 10 µM

## Nc1ccn(C[C@@H](CO)OCP(=O)(O)O)c(=O)n1 [Cidofovir, reference compound]
Cowpox; Cowpox virus, HFF
  EC50: 5 µM
Vaccinia; Orthopoxvirus vaccinia, HFF
  EC50: 4 µM

## NC(=O)c1cn([C@@H]2C=C(CO)[C@@H](O)[C@H]2O)c2ncnc(N)c12 [Compound 18, 7-Deaza-7-Amido-Neplanocin A]
[2]
  CC50: > 300 µM
Hepatitis B Virus [3]; [9]
  EC50: > 10 µM
  EC90: > 10 µM

## C#Cc1cn([C@@H]2C=C(CO)C(O)C2O)c2ncnc(N)c12 (stereo partly shown) [Compound 27, 7-Deaza-7-Acetylene-Neplanocin A]
other
  melting point: 126 to 128 °C
[2]
  CC50: > 300 µM
Hepatitis B Virus [5]; Hepatitis B virus
  EC50: 1.8 µM
  EC90: 7.9 µM
HBV strain WT; Hepatitis B virus
  EC50: 2.5 µM
  EC90: 8.7 µM
Hepatitis B Virus [3]; [7]
  EC50: 0.315 µM
  EC90: 1.6 µM

## Nc1ncnc2c1c(Cl)cn2[C@@H]1C=C(CO)C(O)C1O (stereo partly shown)
[1]; HT @ 100 μM
  IC50: 50.1 µM
[1]
  Cytotoxicity (% cell control): 81.2%
HCV RNA replicon; HT @ 100 μM
  EC50: 14.7 µM
HCV RNA replicon
  Activity (% inhibition virus control): 70.6%

## NC(=O)c1cn(C2C=C(CO)C(O)C2O)cn1 (stereo not shown) [Compound 17b, 1-(4,5-Dihydroxy-3-hydroxymethyl-cyclopenten-2-enyl)-1H-imidazole-4-carboxylic acid amide]
[6]
  antiviral activity: did not show any significant antiviral activity

## N#Cc1cn([C@@H]2C=C(CO)C(O)C2O)c2ncnc(N)c12 (stereo partly shown)
[1]
  Cytotoxicity (% cell control): 103.3%
HCV RNA replicon
  Activity (% inhibition virus control): 0.5%
  outcome of primary test: Inactive in primary, single-dilution test

## NC(=O)c1cn(C2C=C(CO)C(O)C2O)nn1 (stereo not shown) [Compound 17c, 1-(4,5-Dihydroxy-3-hydroxymethyl-cyclopenten-2-enyl)-1H-[1,2,3]triazole-4-carboxylic acid amide]
SARS virus
  EC50: 47 µM
Cowpox virus
  EC50: 39 µM
Vacinnia virus
  EC50: 0.4 µM

## Nc1ncnc2c1c(F)cn2[C@@H]1C=C(CO)[C@@H](O)[C@H]1O [Compound 10]
[2]
  CC50: > 300 µM
Hepatitis B Virus [3]; [9]
  EC50: > 10 µM
  EC90: > 10 µM

## Nc1ncnc2c1c(Cl)cn2[C@@H]1C=C(CO)[C@@H](O)[C@H]1O [Compound 11, 7-Deaza-7-Chloro Neplanocin A]
[2]
  CC50: > 300 µM
Hepatitis B Virus [3]; [9]
  EC50: > 10 µM
  EC90: > 10 µM

## CC(C)(C)C(=O)OCOP(=O)(COCCn1cnc2c(N)ncnc21)OCOC(=O)C(C)(C)C [ADV]
HBV strain WT
  EC50: 1.3 µM
  EC90: 6 µM

## C=Cc1cn([C@@H]2C=C(CO)C(O)C2O)c2ncnc(N)c12 (stereo partly shown)
[1]
  Cytotoxicity (% cell control): 99.7%
HCV RNA replicon
  Activity (% inhibition virus control): 49.2%

## 1-(4,5-Dihydroxy-3-hydroxymethyl-cyclopenten-2-enyl)-1H-[1,2,4]triazole-3-carboxylic acid amide [Compound 17a]
SARS virus
  EC50: 21 µM

## Nc1ncnc2c1c(I)cn2[C@@H]1C=C(CO)[C@@H](O)[C@H]1O [Compound 13, 7-Deaza-7-Iodo Neplanocin A]
[2]
  CC50: > 300 µM
Hepatitis B Virus [5]
  EC50: 1.6 µM
  EC90: 5.9 µM
Hepatitis B Virus [3]; [9]
  EC50: 0.431 µM
  EC90: 1.8 µM
